Key:
male Wistar/AF EOPS rats [1] = assay: Behavioral despair test (forced swimming); assay type: in vivo, rat; details: for Immobility period, Test session / Immobility period, Retest session: first 5 minutes; for Immobility period, Test session: test is before any treatment
Procedure: Forty male Wistar/AF EOPS rats (Iffa-Credo Breeding Centre, 69-St-Germain sur l'Arbresle, France), weighing 300 to 320 g, were used. On arrival, the rats were labelled and distributed randomly in pairs into type F polycarbonate cages (48×27×20 cm, U.A.R., 91-Epinay-Sur-Orge, France). The animals were stabled in an air-conditioned animal house, at a temperature of 22-24° C. The rats were given food (M25 croquettes, Ets Piétrement, 77-Provins, France) and drink ad libitum and were subjected to a 12-hour light-darkness cycle.
After one week of familiarization with the laboratory conditions, the rats were weighed and distributed randomly into 3 treatment groups (n=12). The rats of the different groups will all be handled in the same way and under the same conditions.
The behavioral despair test takes place over two sessions: • a 15-minute test session; • a 5-minute retest session, performed 24 hours later.
During the test session, the rat was subjected to forced swimming in a Plexiglas cylinder (20 cm in diameter and 50 cm in height, containing 25 cm of water at 25° C.) and its behavior was recorded over 15 minutes. At the end of the test, the rat was removed from the water, dried gently, treated and then returned to its dwelling cage.
During the retest, 24 hours later, the rat was again placed in the water and its behavior was recorded over 5 minutes.
The recorded variables are the period of immobility during the first 5 minutes of both the test and the retest.
The peptide FG-005 was suspended at a rate of 500 μg per 5 ml of 0.01N acetic acid, and then diluted with PBS to be administered at doses of 50 and 100 μg/kg via the i.v. route into the dorsal caudal vein of the rat, immediately after the test and 300 and 5 minutes before the retest the following day (Table X). 8-OH-DPAT was injected i.p.
A bilateral probability paired t test was used to compare the two periods of immobility of the test with those of the retest in each of the groups. The results are expressed as an average standard error of mean (SEM) (Table XI and FIG. 20). The statistical and graphical processing was performed using Statview5 and DeltaGraph® Pro 3.5 software.

male rats [2] = details: high doses; cited from earlier work
male Wistar rats [3] = assay: Irwin test; assay type: in vivo, rat; details: injected into tail vein, escalating doses
Procedure: An Irwin test was performed on 12 male Wistar rats (Iffa Credo, L'Arbresles, France), weighing 260-280 g. They were housed in groups of 4 in a climate controlled room with a 12 h light:dark cycle (light 8:00 PM-8:00 AM) and had access to food and water ad libitum. After a seven day acclimatization period, the rats were weighed, identified and randomly assigned to one of the four treatment groups. The drug was injected to the tail vein of the rats according to the group dose.
Observations were performed 15, 30, 60 and 120 minutes after administration. Among the most noticeable results are the results concerning the awareness state of the rats. […] Rats injected FG-005 are less stressed as shown by startle response test (FIG. 2), and by the abdominal tone (FIG. 3).

male Wistar rats [4] = assay: Behavior of male rats in the presence of receptive females; assay type: in vivo, rat
Procedure: Behavior tests were performed on 12 male Wistar rats (Iffa Credo, L'Arbresles, France), weighing 260-280 g. They were housed in groups of 4 in a climate controlled room with a 12-h light:dark cycle and had access to food and water ad libitum. After seven days acclimatization period, the rats were weighed, identified and randomly assigned to one of the four treatment groups. The rats were familiarized once with female rats which had been brought to sexual receptivity by injecting estradiol benzoate for 4 days (5 μg/0.5 ml oil, s.c. once daily). Behavioral testing was performed under blind conditions in a dimlight environment 2 hours after the onset of the dark phase of the light/dark cycle. Behavior was assessed by placing the male rat in a plexiglass cage (50×30×20 cm) five minutes before a receptive female was presented. All of the tests on rats were recorded on a VHS-videotape. The recorded parameters were: number of ejaculations, latency of first mount, latency of first ejaculation, number of mounts, postejaculatory interval, avoidance behavior patterns, awareness of other rats presence, initiation or response to social interaction, interest in other rat, self-care, willingness to enter into relationship. All of the quantitative results were analyzed using the Kruskal-Wallis test followed by the Mann-Whitney U-Test to compare each treated group with the control group. The statistical analyzes were carried out using the Statview 4.1 statistical package.

[5] = tested on: male rats with sexually receptive female; assay: Dose-response relationship of FG-005 on male rat sexual behavior; assay type: in vivo; details: for total number of mounts with or without intromission, Mean: 45-min observation
Procedure: Effect of increasing concentrations of FG-005 peptide (SMR1-QHNPR) given i.v. on the number of sexual intercourse episodes of male rats with sexually receptive female, was assessed. All of the […] parameters were analyzed using one-way analysis of variance (ANOVA) for the differences between treated groups and followed by the multiple comparison test of Fisher (PLSD Fisher) to compare each group of FG-005-injected rats with the control group (vehicle-injected rats). Nine to ten rats were used for each group and P value of less than 0.005 was considered as significant for both tests.
This is appreciated by the significant dose-dependent increase of sexual interactions (mounts, mounts with intromission and mounts per ejaculation) during (first ejaculation latency and interejaculatory latency) episodes of sexual intercourse.

male rats [6] = assay: First two post ejaculatory intervals (PEI); assay type: in vivo, rat
Procedure: All quantitative results are statistically analyzed using a Krukal-Wallis test (KWT), as a between-group variable, followed by Mann-Whitney U-test (MWT) to compare the treated group to control one. Friedman test (FT), as within-group variable, was used for repeated measures across the first three ejaculatory series, followed by Wilcoxon (WT). Data are reported as mean ±SEM. For all statistical evaluations, the level of significance was set at p<0.05. All statistical analyses were carried out using the Statview™ 4.5 statistical package (Abacus Concepts, Inc, Berkeley, Calif.).
Masculine sociosexual behaviors other than copulatory acts were measured and analyzed during the two successive post-ejaculatory intervals. Among these are pursuit of the female, sniffing, grooming, running behind the partner in close contact and anogenital exploration (sniffing, licking and grooming the partner). […] Thus, for a similar amount of time in PEI duration compared to controls, the 3 μg/kg-treated rats spent during this interval, 7 to 10 fold more amount of time to pursue and groom the female.

male Wistar/AF EOPS rats [7] = assay: Behavioral despair test (forced swimming); assay type: in vivo, rat; details: 100 mg/kg; difference not statistically significant

CCCN(CCC)C1CCc2cccc(O)c2C1 (centres unmarked) [8-OH-DPAT, reference compound]
Immobility period, Test session (male Wistar/AF EOPS rats [1]; 0.5 mg/kg i.p. group): 109.20
Immobility period, Retest session (male Wistar/AF EOPS rats [1]; 0.5 mg/kg i.p., 1440, 300, 30 min before retest): 31.60
period of immobility, retest compared with test (male Wistar/AF EOPS rats [1]; 8-OH-DPAT 0.5 mg/kg i.p.): significantly reduce their period of immobility
anti-resignation effect (male Wistar/AF EOPS rats [1]; reference substance, 0.5 mg/kg i.p.): significant anti-resignation effect

CC[C@H](C)[C@@H]1NC(=O)[C@H](Cc2ccc(O)cc2)NC(=O)[C@@H](N)CSSC[C@@H](C(=O)N2CCC[C@H]2C(=O)N[C@@H](CC(C)C)C(=O)NCC(N)=O)NC(=O)[C@H](CC(N)=O)NC(=O)[C@H](CCC(N)=O)NC1=O [oxytocin]
locomotion (male rats [2]): decrease locomotion

Gln-His-Asn-Pro-Arg (QHNPR; This is a peptide sequence that was designed to achieve therapeutic effects in mammals.) [FG-005, synthesized pentapeptide with N-terminal Glutamine]
abdominal tone (FIG. 3) (male Wistar rats [3]): less stressed
aggressiveness (male Wistar rats [3]): not associated with an increase of aggressiveness
finger approach test (male Wistar rats [3]): increased interest
startle response test (FIG. 2) (male Wistar rats [3]): less stressed
vocalization when third parties approach (male Wistar rats [3]): increased vocalization
wire maneuver test (male Wistar rats [3]): Significant response
tail pinch test (FIGS. 4-7) (male Wistar rats [3]; 15, 30, 60, 120 minutes): less reactivity to nociceptive stimuli
awareness state / sleep (FIG. 1) (male Wistar rats [3]; after 2 hours of tests): much less likely to fall asleep
Latency of the first mount, Mean (male Wistar rats [4]; 3 μg/kg): 93.333 s
latency of first mounts (in words) (male Wistar rats [4]; 3 μg/kg): significantly increased latency
number of ejaculations in 45 minutes, Mean (male Wistar rats [4]; 3 μg/kg): 5.333
refractory period between the second ejaculation and the next mount, Mean (male Wistar rats [4]; 3 μg/kg): 311.333 s
Latency of the first mount, Mean (male Wistar rats [4]; 15 μg/kg): 23.000 s
number of ejaculations in 45 minutes, Mean (male Wistar rats [4]; 15 μg/kg): 4.000
refractory period between the second ejaculation and the next mount, Mean (male Wistar rats [4]; 15 μg/kg): 412.000 s
Latency of the first mount, Mean (male Wistar rats [4]; 30 μg/kg): 13.667 s
number of ejaculations in 45 minutes, Mean (male Wistar rats [4]; 30 μg/kg): 4.667
refractory period between the second ejaculation and the next mount, Mean (male Wistar rats [4]; 30 μg/kg): 373.667 s
avoidance symptoms during refractory periods (male Wistar rats [4]; treated vs control rats): loss of avoidance symptoms
duration of refractory periods (in words) (male Wistar rats [4]; treated vs control rats): shortened
interest in the other rat after ejaculation (male Wistar rats [4]; treated vs non-treated rats): interest is maintained
number of episodes of intercourse (number of ejaculations in 45 minutes, in words) (male Wistar rats [4]; treated vs non-treated rats): significantly increased
self-care, attention to personal toilet after each penetration (male Wistar rats [4]; treated vs non-treated rats): increased
mean number of mounts per ejaculation ([5]; 0.3 μg/kg i.v.): 20.220
number of mounts before the first ejaculation, Mean ([5]; 0.3 μg/kg i.v.): 31.111
number of mounts before the fourth ejaculation (interejaculatory interval), Mean ([5]; 0.3 μg/kg i.v.): 11.500
number of mounts before the third ejaculation (interejaculatory interval), Mean ([5]; 0.3 μg/kg i.v.): 13.444
number of mounts with intromission, Mean ([5]; 0.3 μg/kg i.v.): 77.111
total number of mounts with or without intromission, Mean ([5]; 0.3 μg/kg i.v.): 81.778
mean number of mounts per ejaculation ([5]; 1 μg/kg i.v.): 26.911
number of mounts before the first ejaculation, Mean ([5]; 1 μg/kg i.v.): 33.444
number of mounts before the fourth ejaculation (interejaculatory interval), Mean ([5]; 1 μg/kg i.v.): 19.143
number of mounts before the third ejaculation (interejaculatory interval), Mean ([5]; 1 μg/kg i.v.): 18.333
number of mounts with intromission, Mean ([5]; 1 μg/kg i.v.): 90.556
total number of mounts with or without intromission, Mean ([5]; 1 μg/kg i.v.): 96.667
first ejaculation latency ([5]; 3 μg/Kg vs vehicle-injected rats): increased significantly
total number of ejaculations ([5]; 3 μg/Kg, 45 min observation period): lower than that of vehicle-treated rats
mean number of mounts per ejaculation ([5]; 3 μg/kg i.v.): 36.013
number of mounts before the first ejaculation, Mean ([5]; 3 μg/kg i.v.): 37.500
number of mounts before the fourth ejaculation (interejaculatory interval), Mean ([5]; 3 μg/kg i.v.): 24.167
number of mounts before the third ejaculation (interejaculatory interval), Mean ([5]; 3 μg/kg i.v.): 22.889
number of mounts with intromission, Mean ([5]; 3 μg/kg i.v.): 97.700
total number of mounts with or without intromission, Mean ([5]; 3 μg/kg i.v.): 110.100
third ejaculation latency ([5]; dose-related manner): tended also to increase
second ejaculation latency ([5]; pronounced effect at 1 and 3 μg/Kg): significant dose-related prolongation
aggressive impulse behavior ([5]; treated vs control rats): loss of aggressive impulse behavior
duration of the first PEI (male rats [6]; 1 μg/kg vs control): significantly longer
duration of the second PEI (male rats [6]; 0.3, 1 and 3 μg/kg): not significantly influenced
duration of male socio-sexual behaviors during the first and second PEI (male rats [6]; 0.3, 1 and 3 μg/kg vs controls): significantly more time
duration of male immobility during the first and second PEI (male rats [6]; 0.3, 1 and 3 μg/kg vs vehicle controls): significantly less time
Immobility period, Retest session (male Wistar/AF EOPS rats [1]; 50 μg/kg i.v., 1440, 300, 5 min before retest): 141.20 ± 21.28
period of immobility, retest compared with test (male Wistar/AF EOPS rats [1]; 50 μg/kg, difference not statistically significant): increase their period of immobility
Immobility period, Retest session (male Wistar/AF EOPS rats [1]; 100 μg/kg i.v., 1440, 300, 5 min before retest): 121.50 ± 17.47
behavioral resignation (antidepressant effect) (male Wistar/AF EOPS rats [1]; 50 and 100 μg/kg, i.v.): no behavioral resignation
Immobility period, Test session (male Wistar/AF EOPS rats [1]; FG-50 group, 50 μg/kg i.v.): 119.00 ± 13.79
Immobility period, Test session (male Wistar/AF EOPS rats [1]; FG-100 group, 100 μg/kg i.v.): 138.30 ± 11.03
period of immobility, retest compared with test (male Wistar/AF EOPS rats [7]): reduce it

From patent US7387778B2, “Therapeutic methods and compositions for the treatment of impaired interpersonal and behavioral disorders” (Institut Pasteur, priority 1999, dated 2008)
